One experiment has as its system Caspase-3. In words: Caspase-3 protein expression in HGC-27 cells (immunofluorescence). In kind it is cell-based. The note with it: n = 6. On the procedure: (§1) The sterilized cell transfer membrane was taken and placed into a 24-well plate, which was seeded with 1 mL (1×10^5 cells/mL) cell suspension, and cultured for 24 h. Drug-containing medium was added, The negative control groups and administration groups were set, with the experimental groups intervened for 24-48 h. The plate was washed with PBS, and fixed with 4% paraformaldehyde for 15 min. It was treated with 0.1% TritonX-100, and washed with PBS, blocked with 1:10 diluted normal serum blocking solution for 15 min. The plate was added 1:100 diluted primary antibody, placed at 4° C. overnight. The plate was washed with PBS, to which 1:100 diluted secondary antibodies was added and incubated at room temperature for 30 min. The plate was washed with PBS, to which 1:100 diluted SABC-FITC was added, and re-incubated at room temperature for additional 30 min. The unbound FITC was washed with PBS. We observed and taken pictures under fluorescence microscope, and analyzed the fluorescence intensity by Bioflux Montage software. 6 fields were selected randomly under microscope for each group and the integral optical density value of cells was calculated.

The test system of a further experiment is HUVECs. Put plainly: HUVEC viability (MTT method). In kind it is cell-based. The note with it: Homo sapiens, 48 h. On the procedure: Test Methods: The effect of ZYS-1 on the viability of HUVECs was determined by MTT method. The HUVECs in logarithmic growth phase were taken and digested with 0.25% trypsin, centrifuged and resuspended in ECM complete medium to formulate into […] single cell suspension. The cells were seeded in 96-well culture plates at a density of 1×10^4 cells/well, with a volume of 100 μL per well. They were placed and cultured in the incubator with 37®, 5% CO2. After culturing 24 h, […] different concentrations of ZYS-1 solution were added to obtain the final concentrations of drugs at 0.1, 0.5, 1, 5, 10, 50 and 100 μM. Meanwhile, the positive control group was set as etoposide at a final concentration of 10 μM, and the negative control was an equal amount of 0.1% DMSO solution. Each concentration of the experimental groups and the control groups all were set five replicates, with 100 μL of drugs per well. The blank control group is additionally set as 200 μL complete medium. The cells were placed and cultured in the incubator with 37 m, 5% CO2. After culturing for 48 h, 20 μL MTT solution (5 mg/mL) was added to each well, which was continued to be cultured for another 4 h. […] The light absorbance value of each well was measured by enzyme-linked immunosorbent assay. The measured wavelength was 570 nm and the result was recorded. […]
(Tetrazolium assays rely on reduction of a dye to a coloured formazan, in cell work by metabolically active cells.)

For another experiment, the system named is HT-1080 cells. In words: HT-1080 cell invasion (Transwell, matrigel). Type of experiment: cell-based, human. On the procedure: The matrigel was thawed at 4° C. overnight and diluted with serum-free medium precooled at 4° ? t 1:2. 30 μL of the diluted matrigel was added vertically in the center of the bottom of the upper chamber, allowed to stand at r.m. for 20 min, and then incubated at 37° C. for 60 min. It was observed under the microscope until gelling, hydrated with the serum-free medium for use. The treated tumor cells with drugs for 48 h were digested and collected, and then the cells were suspended with serum free medium. The cell intensity was adjusted into 2.5×10^5 cells/mL, and kept cultured in the incubator for another 24 h. The upper chamber was taken, with methanol fixation for 30 min, dyed with Giemsa stain for 30 min, rinsed with clean water twice. The cells on the bottom membrane surface of the upper chamber were carefully wiped off with a wet cotton swab, dried in the air. With the bottom up, they were transferred onto glass slide and sealed with neutral gum. Under the microscope, nine random fields were taken and the transmembrane cells therein were counted. The average values were statistically calculated.

For the next experiment, the system named is NF-κB. Put plainly: NF-κB protein expression in HGC-27 cells (immunofluorescence). In kind it is cell-based. The note with it: n = 6. The method, then: as §1
For the next experiment, the system named is XIAP. In words: XIAP protein expression in HGC-27 cells (immunofluorescence). Type of experiment: cell-based. The note with it: n = 6. The method, then:
as §1

The subject of a further experiment is HGC-27 cells. Put plainly: Two-dimensional migration (cell scratch assay). In kind it is cell-based. As to conditions: n = 3. The method, then:
HGC-27 cells in logarithmic growth phase were collected. The cell with density of 5×10^5 cells/mL was spread onto 24-well plates (0.5 mL per well). RMPI-1640 culture medium with 10% fetal bovine serum was added and cultured for 24 h to form monolayer cells. The monolayer cells were scratched in a line by 20 μL pipette gun tip, which was washed with PBS three times. Then, drug-containing media with 2% fetal bovine serum s were added, which concentrations were 2 μM, 4 μM, respectively. The media were cultured in the incubator with 37 ? , 5% CO2 saturated humidity. Sampled at 0, 4, 8, 12 h and took the pictures. The area where cells were migrated from scratch edge to scratch within the same field was counted by software.

Marks after values point to notes of the source that are not given here.

A word on the IC50: it is the concentration at which inhibition is half-maximal. The low end stands for greater potency, the high end for weaker potency. `C=CCc1cccc(/C=N/NC(=O)CN2CCN(Cc3ccccc3)CC2)c1O` [ZYS-1, 1-Piperazineacetic acid, 4-(phenylmethyl)-2-[[2-hydroxy-3-(2-propen-1-yl)phenyl]methylene]]: the “Caspase-3 protein expression (integral optical density value)” value with Caspase-3 (4 μM) worked out at 37.26 ± 0.39; with Caspase-3 (8 μM) it was 39.36 ± 1.20. The molecule further returned an IC50 in the experiment on HUVECs of 2540 nM. For the same molecule, the “numbers of invasive cells” value was “smaller than those from the control group” in the experiment on HT-1080 cells (2 μM and 4 μM administration groups); “No cell from 8 μM administration group invaded into the lower chamber” in the experiment with HT-1080 cells (8 μM administration group). Besides, the figures for the “NF-κB protein expression (integral optical density value)” value with NF-κB (4 μM) and in the experiment with NF-κB (8 μM) were 43.83 ± 1.06 and 40.94 ± 0.46, respectively. Also, the results for the “XIAP protein expression (integral optical density value)” value with XIAP (4 μM) and in the experiment on XIAP (8 μM) were 38.22 ± 0.81 and 36.27 ± 1.03, respectively. For the same molecule, the “area of cell migration into scratch” value is given as 0.12 ± 0.01 mm^2 in the experiment on HGC-27 cells (2 μM, 4 h); 0.16 ± 0.02 mm^2 in the experiment on HGC-27 cells (2 μM, 8 h); 0.20 ± 0.02 mm^2 in the experiment with HGC-27 cells (2 μM, 12 h); 0.04 ± 0.01* mm^2 with HGC-27 cells (4 μM, 4 h); 0.07 ± 0.01* mm^2 with HGC-27 cells (4 μM, 8 h); 0.08 ± 0.02** mm^2 in the experiment with HGC-27 cells (4 μM, 12 h).

The record behind these values is US20180201594A1, “Compound pac-1 or salt thereof and pharmaceutical composition comprising same” (priority 2015, published 2018).
